These results are taken from patent US8101618B2, “1,4-substituted piperazine derivatives” (MSD K.K., priority 2005, dated 2012).

Structures are written as SMILES.

In test [1] the target is T1, human metabotropic glutamic acid receptor 1a (mGluR1a) (Homo sapiens, UniProt Q13255).
T1 construct: expressed in transfected cells
Description: Measurement of intracellular calcium concentration (FLIPR) in mGluR1a-expressing CHO cells. Particulars: for IC50: Fluo-3, compound added 5 minutes before 10 μM glutamic acid, read-out: IC50 (inhibition of the calcium increase caused by 10 μM glutamic acid); for agonistic effect to mGluR1: to 10 μM, intracellular calcium. The class given is cell-based. Here is the method: Using LIPOFECTAMINE (BY Gibco BRL), CHO cells were transfected with a cDNA of a human metabotropic glutamic acid receptor 1a (mGluR1a), thereby obtaining an mGluR1a stable expression strain. The mGluR1a-expressing CHO cells were incubated in a DMEM medium containing 10% dialyzed fetal calf serum, 1% proline, 100 units/ml penicillin, 0.1 mg/ml streptomycin sulfate, and 2 mM glutamine.
On the day before the test day, the mGluR1a-expressing CHO cells that had been plated in a 96-well black plate (View Plate by Packard) at […] with 4 μM Fluo-3 were incubated in a CO2 incubator for 1 hour. Next, the cells were washed four times with an HBSS solution containing 20 mM HEPES and 2.5 mM Probenecid, and then the intracellular calcium concentration was measured using Fluorescence Imaging Plate Reader (FLIPR by Molecular Device). The test compound and glutamic acid were conditioned with an HBSS solution containing 20 mM HEPES and 2.5 mM Probenecid. The test compound was added to the system before 5 minutes of agonist stimulation, and 10 μM glutamic acid was used as the agonist.

Test [2] deals with Male ICR (CD-1) mice. As to the kind of experiment: Inhibitory effect of compound to mouse action increased by methamphetamine. The class given is in vivo. The settings on record: compound 30 mg/kg intraabdominal 30 minutes before methamphetamine 2 mg/kg subcutaneous; motion watched for 60 minutes. Here is the method:
Male ICR (CD-1) mice (20-40 g) were used. Using a motion watcher (by Neuroscience) for watching animal movement with an IR sensor, the motion of the mice was determined. A compound or a suitable solvent was administered to each mouse, and after 30 minutes, physiological saline water or methamphetamine was administered thereto. Immediately after that, the motion of the mice was watched for 60 minutes. Based on the difference between the motion of the methamphetamine-administered group and the solvent-administered group during the test term, 100%, the motion of the test compound-administered group is computed and expressed as inhibition %.

T1 sequence (Q13255 19-1194): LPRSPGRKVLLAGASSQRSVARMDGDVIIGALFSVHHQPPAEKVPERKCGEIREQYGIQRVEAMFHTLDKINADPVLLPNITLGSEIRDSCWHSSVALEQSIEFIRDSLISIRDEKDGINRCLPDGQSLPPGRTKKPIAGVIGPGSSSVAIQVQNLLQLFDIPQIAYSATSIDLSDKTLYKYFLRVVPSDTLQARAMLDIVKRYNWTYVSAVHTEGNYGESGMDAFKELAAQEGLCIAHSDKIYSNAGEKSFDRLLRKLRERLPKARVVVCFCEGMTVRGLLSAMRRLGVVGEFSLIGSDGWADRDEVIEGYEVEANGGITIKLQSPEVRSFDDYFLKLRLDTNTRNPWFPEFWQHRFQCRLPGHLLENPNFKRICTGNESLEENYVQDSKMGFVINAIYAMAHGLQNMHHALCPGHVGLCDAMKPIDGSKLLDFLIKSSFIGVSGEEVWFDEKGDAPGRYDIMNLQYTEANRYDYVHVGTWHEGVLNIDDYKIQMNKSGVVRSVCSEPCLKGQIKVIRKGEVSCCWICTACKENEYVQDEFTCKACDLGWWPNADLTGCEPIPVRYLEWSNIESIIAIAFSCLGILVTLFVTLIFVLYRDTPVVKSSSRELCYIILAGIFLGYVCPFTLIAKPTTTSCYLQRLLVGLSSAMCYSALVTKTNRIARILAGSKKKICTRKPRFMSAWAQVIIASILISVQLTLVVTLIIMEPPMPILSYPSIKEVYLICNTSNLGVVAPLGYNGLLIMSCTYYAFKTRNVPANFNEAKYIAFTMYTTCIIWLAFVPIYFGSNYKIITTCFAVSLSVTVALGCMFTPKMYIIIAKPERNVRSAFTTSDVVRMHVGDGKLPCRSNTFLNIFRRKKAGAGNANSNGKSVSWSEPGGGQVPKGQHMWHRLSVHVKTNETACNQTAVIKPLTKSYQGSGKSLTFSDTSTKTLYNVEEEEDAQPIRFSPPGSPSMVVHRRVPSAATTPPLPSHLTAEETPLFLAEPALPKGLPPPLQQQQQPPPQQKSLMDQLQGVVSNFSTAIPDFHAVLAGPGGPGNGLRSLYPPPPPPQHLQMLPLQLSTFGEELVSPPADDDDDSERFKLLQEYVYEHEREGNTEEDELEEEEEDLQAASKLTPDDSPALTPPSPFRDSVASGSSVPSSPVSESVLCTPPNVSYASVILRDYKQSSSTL

As usually defined, the IC50 is the concentration that gives 50% inhibition. As for `Cc1ccnc(N2CCN(C(=O)OCC(C)(C)C)CC2)c1` [Example 1, 2,2-Dimethylpropyl 4-(4-methylpyridin-2-yl)-1-piperazinecarboxylate], in test [1], the IC50 was found to be 6.9 nM and the “agonistic effect to mGluR1” value was “no agonistic effect”. In addition, the “Motion (inhibition %)” value in test [2] is more than 50%.

Turning to `CC(C)(C)COC(=O)N1CCN(c2nc3ccccc3o2)CC1` [Example 3, 2,2-Dimethylpropyl 4-(benzoxazol-2-yl)-1-piperazinecarboxylate], in test [1], the IC50 was determined as 33 nM and the “agonistic effect to mGluR1” value is on record as “no agonistic effect”.

As for `C[C@@H](O)c1nc(-c2ccnc(N3CCN(C(=O)OCC(C)(C)C)CC3)c2)no1` [Example 27, 2,2-Dimethylpropyl 4-(4-{5-[(1R)-1-hydroxyethyl]-1,2,4-oxadiazol-3-yl}pyridin-2-yl)-1-piperazinecarboxylate], in test [1], the IC50 was found to be 9.6 nM and the “agonistic effect to mGluR1” value is listed as “no agonistic effect”. Further, the “Motion (inhibition %)” value in test [2] is more than 50%.

For `CNc1nc(-c2ccnc(N3CCN(C(=O)OCC(C)(C)C)CC3)c2)no1` [Example 39, 2,2-Dimethylpropyl 4-{4-[5-(methylamino)-1,2,4-oxadiazol-3-yl]pyridin-2-yl}-1-piperazinecarboxylate], in test [1], the IC50 amounted to 13 nM and the “agonistic effect to mGluR1” value is reported as “no agonistic effect”. The “Motion (inhibition %)” value in test [2] is given as more than 50%.

On to `C[C@H](O)c1nc(-c2ccnc(N3CCN(C(=O)CCC(C)(C)C)CC3)c2)no1` [Example 58, 1-(4,4-Dimethylpentanoyl)-4-(4-{5-[(1S)-hydroxyethyl]-1,2,4-oxadiazol-3-yl}pyridin-2-yl)piperazine], for which, in test [1], the IC50 stood at 16 nM and the “agonistic effect to mGluR1” value is given as “no agonistic effect”. In addition, the “Motion (inhibition %)” value in test [2] is listed as more than 50%.
